The source of these data is patent US11040984B2, “Quinazoline compound for EGFR inhibition” (MEDSHINE DISCOVERY INC., priority 2016, dated 2021).

For experiment [1], the system named is PC-9 (Δ19del) cells. Put plainly: Anti-PC-9 cell proliferation (Cell-Titer Glo, 72 hours). The format is cell-based. Conditions: Homo sapiens, PC-9 cells, read-out: Anti-PC-9 (Δ19del) cell proliferative activity IC50. How it is done:
RPMI 1640 medium, FBS fetal bovine serum and trypsin-EDTA were purchased from Giboco. DPBS was purchased from Corning, penicillin/streptomycin solution from Hyclone, Cell-Titer Glo reagent from Promega (1 kit, Cat. No. G7571). PC-9 was built by WuXi itself. Plate reader: Envision (Perkin Elmer).
(§1) 45 μL Culture media was added to columns 1, 2, 24 of a 384-well plate, repectively. The cell suspension was separated by Multi-drop, 45 μL (1000 cells) per well, which was placed and cultured in an incubator overnight. A compound was added to the source plate according to the requirement of Echo liquid-separation. The compound in the source plate was added to the interplate and diluted to an intermediate concentration, then the compound in the source plate and the interplate was added to the cell plate, and the cells were further cultured in the incubator for 72 hours. After 72 hours, Cell-Titer Glo reagent and cells were taken out and equilibrated at room temperature for 30 minutes. 25 μL Cell-Titer Glo reagent was separated into the cells in 384-well plate by Multi-drop, shaken at medium speed for 3 minutes, centrifuged at 1000 rpm for 2 minutes, and kept for 10 minutes. Envision was used to read the plate (Luminescence).

The target of experiment [2] is EGFR [d746-750] (Homo sapiens (Human), UniProt P00533, DEL746-750). Put plainly: Kinase assay (HTRF KinEASE TK), EGFR exon 19 deletion enzyme. The format is biochemical. The source says: (§2) Detection of inhibitory effects of compounds on enzymatic activities of EGFR WT, EGFR [L858R] and EGFR [d746-750]
Chain of EGFR [d746-750] (P00533 other isoform, or with tags, fused parts or gaps del 1-667/del 746-750 limits assumed): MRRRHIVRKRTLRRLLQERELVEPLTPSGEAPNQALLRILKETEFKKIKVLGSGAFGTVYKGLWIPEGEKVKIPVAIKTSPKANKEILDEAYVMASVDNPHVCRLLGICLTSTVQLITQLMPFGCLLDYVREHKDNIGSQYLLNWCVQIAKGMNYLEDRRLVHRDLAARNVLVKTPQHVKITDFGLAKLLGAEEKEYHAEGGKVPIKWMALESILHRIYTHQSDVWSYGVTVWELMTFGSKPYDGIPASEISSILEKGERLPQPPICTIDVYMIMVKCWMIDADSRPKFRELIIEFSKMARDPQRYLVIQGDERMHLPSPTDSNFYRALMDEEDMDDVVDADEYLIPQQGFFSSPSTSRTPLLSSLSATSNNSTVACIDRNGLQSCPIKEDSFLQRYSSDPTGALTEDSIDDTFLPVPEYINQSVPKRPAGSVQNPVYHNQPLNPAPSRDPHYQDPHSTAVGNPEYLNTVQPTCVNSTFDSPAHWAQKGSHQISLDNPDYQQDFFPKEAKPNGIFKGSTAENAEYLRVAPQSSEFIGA
(§3) EGFR WT (Invitrogen, Cat. No PR7295B), EGFR [L858R] (Invitrogen, Cat. No PR7447A), EGFR [d746-750](Invitrogen, Cat. No PV6179), ATP (Sigma, Cat. No. A7699-1G), DMSO (Sigma, Cat. No. D2650), DTT (Sigma, Cat. No. 43815), 384-well plates compound dilution plates (Greiner, Cat. No. 781280), 384-well plates_test plates (Perkin Elmer, Cat. No. 6007299), HTRF KinEASE TK Kit (Cisbio, Cat. No. 62TKOPEB), MgCl2 (Sigma, Cat. No. M1028), Orthovanadate (Sigma, Cat. No. S6508), BSA (Sigma, Cat. No. A7030), HEPES (Life technology, Cat. No. 11344-041)
(§4) The final test concentrations of the test compounds ranged from 10 μM to 0.17 nM, with serial 3-fold dilutions and 11 gradient concentrations.
(§5) Buffer formulation: a buffer consisted of 50 mM HEPES (pH 7.5), 0.01% BSA, 5 mM MgCl2, 0.1 mM Orthovanadate. After the buffer was formulated, an enzyme and a substrate were mixed with pre-diluted compounds of varying concentrations, and placed at room temperature for 15 minutes. The reaction was initiated by adding ATP and incubated at room temperature for 60 minutes (wherein negative and positive controls were set up). The 10 μL reaction system consisted of a 2.5 μL compound, a 5 μL mixture of enzyme and substrate, and 2.5 μL ATP. After the reaction was complete, antibodies were added to test, the detection was performed with Evnvision after incubation at room temperature for 60 minutes, and data were collected. Data analysis and simulation were performed using XLfit5 software.
Background: TR-FRET usually uses a lanthanide donor and a delayed reading to cut background.

Experiment [3] deals with A431 cells. Put plainly: Anti-A431 cell proliferation. The format is cell-based. Conditions: Homo sapiens, A-431, read-out: Anti-A431 cell proliferative activity IC50. On the procedure:
as §1

In experiment [4] the target is EGFR WT (Homo sapiens (Human), UniProt P00533). Put plainly: Kinase assay (HTRF KinEASE TK), wild-type EGFR enzyme. The format is biochemical.
Chain of EGFR WT (P00533 25-1210): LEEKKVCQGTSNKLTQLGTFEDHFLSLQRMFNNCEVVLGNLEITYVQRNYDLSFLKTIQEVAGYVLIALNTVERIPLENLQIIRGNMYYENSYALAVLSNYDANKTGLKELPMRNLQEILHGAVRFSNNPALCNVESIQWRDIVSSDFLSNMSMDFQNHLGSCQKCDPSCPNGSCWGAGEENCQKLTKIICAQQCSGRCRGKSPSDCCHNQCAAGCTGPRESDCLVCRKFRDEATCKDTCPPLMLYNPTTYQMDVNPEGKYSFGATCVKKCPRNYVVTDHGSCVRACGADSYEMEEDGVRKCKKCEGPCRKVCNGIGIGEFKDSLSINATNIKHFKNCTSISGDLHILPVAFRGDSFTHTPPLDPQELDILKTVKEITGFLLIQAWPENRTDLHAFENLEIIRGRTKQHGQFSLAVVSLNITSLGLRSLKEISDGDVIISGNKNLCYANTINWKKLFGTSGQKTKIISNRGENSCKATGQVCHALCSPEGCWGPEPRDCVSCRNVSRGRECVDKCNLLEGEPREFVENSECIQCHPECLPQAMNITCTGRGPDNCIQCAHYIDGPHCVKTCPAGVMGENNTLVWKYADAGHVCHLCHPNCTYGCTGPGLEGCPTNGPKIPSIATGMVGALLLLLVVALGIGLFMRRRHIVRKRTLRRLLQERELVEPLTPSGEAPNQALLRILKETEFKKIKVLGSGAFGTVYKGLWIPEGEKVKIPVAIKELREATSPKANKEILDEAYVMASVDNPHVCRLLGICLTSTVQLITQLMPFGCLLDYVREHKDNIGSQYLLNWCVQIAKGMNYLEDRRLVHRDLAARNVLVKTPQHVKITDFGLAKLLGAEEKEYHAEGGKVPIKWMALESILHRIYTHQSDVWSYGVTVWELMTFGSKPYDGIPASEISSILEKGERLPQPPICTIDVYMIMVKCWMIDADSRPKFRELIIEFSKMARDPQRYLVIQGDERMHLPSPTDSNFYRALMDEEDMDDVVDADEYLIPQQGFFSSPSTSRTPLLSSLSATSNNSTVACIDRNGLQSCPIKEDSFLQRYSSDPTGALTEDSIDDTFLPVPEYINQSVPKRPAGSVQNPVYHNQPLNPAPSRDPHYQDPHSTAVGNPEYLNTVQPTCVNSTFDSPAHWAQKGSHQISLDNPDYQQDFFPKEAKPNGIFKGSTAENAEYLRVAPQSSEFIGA
From the text: as §2, §3, §4, §5

Experiment [5] deals with EGFR [L858R] (Homo sapiens (Human), UniProt P00533, L858R). Put plainly: Kinase assay (HTRF KinEASE TK), EGFR L858R enzyme. The format is biochemical.
Chain of EGFR [L858R] (P00533 25-1210 L858R): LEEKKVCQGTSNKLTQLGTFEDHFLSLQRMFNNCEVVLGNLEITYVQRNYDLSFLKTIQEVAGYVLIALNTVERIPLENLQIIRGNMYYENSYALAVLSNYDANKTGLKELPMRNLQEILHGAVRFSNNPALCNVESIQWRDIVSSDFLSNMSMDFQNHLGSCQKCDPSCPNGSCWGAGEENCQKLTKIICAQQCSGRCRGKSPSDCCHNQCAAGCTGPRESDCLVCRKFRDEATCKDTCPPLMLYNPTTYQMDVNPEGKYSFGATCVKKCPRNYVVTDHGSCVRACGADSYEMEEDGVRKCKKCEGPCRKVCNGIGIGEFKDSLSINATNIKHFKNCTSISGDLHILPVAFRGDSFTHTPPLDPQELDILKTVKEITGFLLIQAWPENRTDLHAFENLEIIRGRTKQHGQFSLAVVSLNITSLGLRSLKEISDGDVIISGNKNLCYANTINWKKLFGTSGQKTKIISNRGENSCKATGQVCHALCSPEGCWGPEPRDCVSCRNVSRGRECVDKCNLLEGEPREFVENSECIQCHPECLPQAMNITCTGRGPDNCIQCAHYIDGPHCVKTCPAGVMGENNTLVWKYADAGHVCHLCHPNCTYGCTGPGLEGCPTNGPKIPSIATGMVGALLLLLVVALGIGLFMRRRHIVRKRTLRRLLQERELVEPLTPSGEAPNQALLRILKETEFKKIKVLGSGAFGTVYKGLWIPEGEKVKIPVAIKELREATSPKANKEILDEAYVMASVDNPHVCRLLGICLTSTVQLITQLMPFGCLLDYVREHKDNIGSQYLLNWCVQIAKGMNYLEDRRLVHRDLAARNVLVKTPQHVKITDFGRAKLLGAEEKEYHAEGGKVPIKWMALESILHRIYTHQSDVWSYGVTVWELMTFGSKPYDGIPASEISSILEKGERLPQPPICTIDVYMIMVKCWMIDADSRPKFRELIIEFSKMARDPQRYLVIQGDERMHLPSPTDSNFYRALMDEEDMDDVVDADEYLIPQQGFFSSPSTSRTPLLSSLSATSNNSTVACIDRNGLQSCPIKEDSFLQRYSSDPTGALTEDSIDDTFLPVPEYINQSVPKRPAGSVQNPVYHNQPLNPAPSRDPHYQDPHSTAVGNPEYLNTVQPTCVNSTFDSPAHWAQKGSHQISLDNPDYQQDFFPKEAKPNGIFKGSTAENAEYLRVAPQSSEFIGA
From the text: as §2, §3, §4, §5

Structures can show the parent of a compound that is named as a salt.

Regarding `COc1cc2ncnc(Nc3cccc(Cl)c3F)c2cc1N1CC2(CCN(C(C)C)CC2)OC1=O` [Formate of compound 5], in experiment [1], the 50% inhibitory concentration (IC50) (commonly the midpoint of a concentration-inhibition curve) came to 2.73 nM.

On to `COc1cc2ncnc(Nc3cccc(Cl)c3F)c2cc1N1C[C@H](CN(C)C)OC1=O` [Compound 18], for which the IC50 in experiment [2] is 0.05 nM; in experiment [1], 12.5 nM; in experiment [3], 59 nM; in experiment [4] it was under 0.015 nM.

`CN1CC2(C1)CN(c1cc3c(Nc4cccc(Cl)c4F)ncnc3cc1OC(F)F)C(=O)O2` [Compound 45]: in experiment [1], the IC50 is 8.86 nM.

As for `COc1cc2ncnc(Nc3ccc(Cl)c(Cl)c3F)c2cc1N1CC2(CCN(C)CC2)OC1=O` [Formate of compound 6], the figures for the half-maximal inhibitory concentration (IC50) in experiment [2], in experiment [1] and in experiment [4] were 0.07 nM, 4.9 nM and under 0.015 nM, respectively.

For `COc1cc2ncnc(Oc3cccc(Cl)c3)c2cc1N1CC2(CCN(C)CC2)OC1=O` [Compound 16], the 50% inhibitory concentration (IC50) in experiment [1] is 540 nM.

As for `COc1cc2ncnc(Nc3ccc(F)c(Cl)c3)c2cc1N1CC2(CCN(C)CC2)OC1=O` [Formate of compound 2], the results for the concentration for half-maximal inhibition (IC50) in experiment [2], in experiment [1] and in experiment [5] were 16.5 nM, 165 nM and 48.1 nM, respectively.

As for `COc1cc2ncnc(Nc3cccc(Cl)c3F)c2cc1N1CC2(CCN(C)CC2)OC1=O` [Formate of compound 3], the IC50 was determined as 0.02 nM in experiment [2], 3 nM in experiment [1], 0.1 nM in experiment [5] and 96 nM in experiment [3].

`COc1cc2ncnc(Nc3ccc(F)c(Cl)c3F)c2cc1N1CC2(CCN(C)CC2)CC1=O` [Formate of compound 10]: the IC50 came out at 6.01 nM in experiment [1] and 73 nM in experiment [3].

As for `CN1CCC2(CC1)CN(c1ccc3ncnc(Nc4cccc(Cl)c4F)c3c1)C(=O)O2` [Formate of compound 12], the IC50 in experiment [2] stood at 0.085 nM; in experiment [1], 9.11 nM; in experiment [3], 46 nM; in experiment [4], 0.017 nM.

In the case of `CCN1CC2(C1)CN(c1cc3c(Nc4cccc(Cl)c4F)ncnc3cc1OC)C(=O)O2` [Compound 25], the IC50 in experiment [2] amounted to 0.069 nM; in experiment [1], 6.76 nM; in experiment [3], 64 nM; in experiment [4], 0.022 nM.

Take `COc1cc2ncnc(Nc3cccc(Cl)c3F)c2cc1N1CC2(CN(C)C2)OC1=O` [Formate of compound 13]: the IC50 in experiment [2] came to 0.052 nM; in experiment [1] it was 5.34 nM; in experiment [4], 0.016 nM.

Consider `COc1cc2ncnc(Nc3cccc(C)c3F)c2cc1N1CC2(CN(C)C2)OC1=O` [Formate of compound 48], for which the half-maximal inhibitory concentration (IC50) in experiment [1] stood at 8.55 nM.

For the molecule `CC(C)N1CC2(CN(c3ccc4ncnc(Nc5cccc(Cl)c5F)c4c3)C(=O)O2)C1` [Formate of compound 33], the concentration for half-maximal inhibition (IC50) in experiment [2] is 0.29 nM; in experiment [4], 0.114 nM.

As to `COc1cc2ncnc(Nc3ccc(Cl)cc3F)c2cc1N1CC2(CN(C)C2)OC1=O` [Formate of compound 46], the concentration for half-maximal inhibition (IC50) in experiment [1] turned out to be 29.8 nM.

As to `CCCN1CC2(C1)CN(c1cc3c(Nc4cccc(Cl)c4F)ncnc3cc1OC)C(=O)O2` [Hydrochloride of compound 30], the 50% inhibitory concentration (IC50) came out at 0.052 nM in experiment [2], 11.2 nM in experiment [1], 71 nM in experiment [3] and 0.021 nM in experiment [4].

Turning to `COc1cc2ncnc(Nc3cccc(Cl)c3F)c2cc1N1CC2(CN(C(C)C)C2)OC1=O` [Compound 26], the values for the IC50 in experiment [1] and in experiment [3] were 7.2 nM and 98 nM, respectively.

On to `COC[C@@H]1CN(c2cc3c(Nc4cccc(Cl)c4F)ncnc3cc2OC)C(=O)O1` [Compound 23], for which the IC50 stood at 0.17 nM in experiment [2], 24 nM in experiment [1] and 0.038 nM in experiment [4].

For the molecule `COc1cc2ncnc(Nc3cccc(Cl)c3F)c2cc1N1CC2(COC2)OC1=O` [Formate of compound 15], the IC50 in experiment [1] was found to be 23 nM.

On to `CCC1CN(C)CCC12CN(c1cc3c(Nc4cccc(Cl)c4F)ncnc3cc1OC)C(=O)O2` (stereo not shown) [Formate of compound 21], for which, in experiment [1], the IC50 was found to be 2.96 nM.

Consider `COc1cc2ncnc(Oc3cccc(Cl)c3)c2cc1N1CC2(CN(C)C2)OC1=O` [Compound 27], for which the half-inhibitory concentration (IC50) in experiment [1] came to 84 nM.

On to `COc1cc2ncnc(Nc3cccc(Cl)c3F)c2cc1N1C(=O)OC2CN(C)CCC21` (stereo not shown) [Formate of compound 17], for which the IC50 in experiment [1] came out at 29.4 nM.

As to `Cc1cc2ncnc(Nc3cccc(Cl)c3F)c2cc1N1CC2(CCN(C)CC2)OC1=O` [Formate of compound 22], in experiment [1], the concentration for half-maximal inhibition (IC50) is 41.4 nM.

As for `COc1cc2ncnc(Nc3cccc(Cl)c3F)c2cc1N1CC2(CN(C3CC3)C2)OC1=O` [Hydrochloride of compound 31], the IC50 in experiment [1] stood at 15.3 nM.

Consider `COc1cc2ncnc(-n3ccc4c(Cl)cccc43)c2cc1N1CC2(CCN(C)CC2)OC1=O` [Formate of compound 19], for which the half-inhibitory concentration (IC50) in experiment [1] is 1280 nM.

Regarding `COc1cc2ncnc(Nc3c(F)ccc(Cl)c3F)c2cc1N1CC2(CCN(C)CC2)OC1=O` [Formate of compound 24], the IC50 in experiment [1] came out at 7.53 nM.

As to `COc1cc2ncnc(Nc3cccc(Cl)c3F)c2cc1N1CC2(CCN(C)CC2C)OC1=O` (stereo not shown) [Formate of compound 20], in experiment [1], the IC50 is 2.17 nM.

On to `COc1cc2ncnc(-c3cn(C)c4ccccc34)c2cc1N1CC2(CN(C)C2)OC1=O` [Formate of compound 28], for which the half-inhibitory concentration (IC50) in experiment [1] was 250 nM.

For `COc1cc2ncnc(Nc3cccc(Cl)c3OC)c2cc1N1CC2(CCN(C)CC2)OC1=O` [Formate of compound 4], the half-maximal inhibitory concentration (IC50) in experiment [2] turned out to be 55.4 nM; in experiment [1], 396 nM; in experiment [5] it was 30.1 nM.

Consider `COc1cc2ncnc(Nc3ccc(F)c(Cl)c3F)c2cc1N1CC2(CN(C)C2)OC1=O` [Compound 49], for which the IC50 in experiment [1] was 4.2 nM.

On to `COc1cc2ncnc(Nc3cccc(Cl)c3F)c2cc1N1CC2(CN(CCF)C2)OC1=O` [Compound 29], for which the IC50 in experiment [1] was 14.7 nM.
